3 compounds from patent US20260115202A1, “TOPICAL COMPOSITIONS COMPRISING AN ESTETROL COMPONENT AND USE OF SAID COMPOSITIONS FOR WOUND HEALING” (NEURALIS SA, priority 2022, published 2026) can be followed below.

The test system of assay [1] is murine dermal fibroblasts (MDF). In words: qPCR gene expression in murine dermal fibroblasts. In kind it is cell-based, mouse. The following applies: MDF, 10^−7M, qPCR. The text has this:
Primary human dermal fibroblasts (HDF) were isolated from abdominal skin or leg skin. Primary neonatal normal human epidermal keratinocytes (NHEK) were purchased (Lonza). Murine dermal fibroblasts (MDF), murine epidermal keratinocytes (MEK), murine peritoneal macrophages and murine bone marrow were isolated from C57/B16 (wt). NDb (Lepr+/−) or Db (Lepr−/−) mice. Fibroblasts were isolated and cultured in DMEM supplemented with 10% heat inactivated FBS. 1% penicillin/streptomycin and 1% amphotericin B. At least 4 days prior to performing assays cells were switched to DMEM supplemented with 5% charcoal-stripped FBS. Following treatments, human and murine macrophages were collected in Trizol and RNA isolated using the Trizol plus RNA isolation kit (Invitrogen. Thermo Fisher) according to the manufacturer's instructions. RNA was reverse transcribed to cDNA using GoScript reverse transcriptase (Promega). Quantitative real-time PCR was carried out using 2×Takyon SYBR Green mastermix and a CFX Connect thermocycler. Primers for ERα and ERβ were used to explore changes in ER expression after treatment of MEK and MDF with E2 and E4. To investigate the effect of E2 and E4 on MEK differentiation and the expression of ECM proteins by MDF, primers for. Snail, keratin-1 and fibronectin, collagen I. MMP-2 and MMP-9 were used. Primers for INOS. IL-1B and Tnf-α or Ccl17 were used to assess M1/M2 polarisation status. Primers for GAPDH were used to normalise data. Relative gene expression was set to vehicle controls or M0 expression unless otherwise stated. In vitro cultured murine fibroblasts were treated with either E2, E4, DPN or PPT at 10^−7M. As previously reported. […] Next, zymography was performed on cell supernatants from HDFs treated with either E2 or E4, to evaluate the effect of E2 and E4 on cell-derived MMP activity. […] The magnitude of the effect (and statistical significance) was greater in cells treated with E4. No MMP9 activity was detected in any treatment group. Finally, we explored the effect of E2 and E4 on murine fibroblast expression of extracellular matrix genes, specifically collagen 1 (Colal) and fibronectin (Fn1) (FIG. 20).

Assay [2] concerns human dermal fibroblasts (HDF). The assay is described as follows: Scratch wound assay, human dermal fibroblasts. Format: cell-based. The following applies: HDF, 24 hours, preliminary. From the text:
Primary human dermal fibroblasts (HDF) were isolated from abdominal skin or leg skin. Primary neonatal normal human epidermal keratinocytes (NHEK) were purchased (Lonza). Murine dermal fibroblasts (MDF), murine epidermal keratinocytes (MEK), murine peritoneal macrophages and murine bone marrow were isolated from C57/B16 (wt). NDb (Lepr+/-) or Db (Lepr-/-) mice. Fibroblasts were isolated and cultured in DMEM supplemented with 10% heat inactivated FBS. 1% penicillin/streptomycin and 1% amphotericin B. At least 4 days prior to performing assays cells were switched to DMEM supplemented with 5% charcoal-stripped FBS. Cells were seeded into 24 well plates and cultured to form a confluent monolayer, and then scratched with a 1 ml pipette tip. Wells were treated with E2, E4 and/or various estrogen receptor agonists and antagonists. […] A vehicle control containing the equivalent concentration of EtOH and/or DMSO was included, in addition to an untreated negative control. All treatments were diluted to working concentrations in media supplemented with 2% charcoal-stripped FBS. To visualise scratches at the defined endpoint, cells were stained with crystal violet and imaged on a Nikon E400 brightfield microscope. Scratch closure was determined from multiple independent measurements per well. Scratch assays were performed to quantify the effect of E2 and E4 at varying concentrations on HDF migration (FIG. 14). […] 10^-7M and 10^-6M (152%. 147% and 142% respectively). Thus, both E2 and E4 optimally stimulated fibroblast scratch wound closure at 10^-8M, with the higher magnitude of stimulation observed following E2 treatment. Next, an additional experiment was performed using HDF to a) further confirm the effects of E2 and E4 in fibroblasts from a fifth donor and b) explore the relative effect of including CS-FBS in the cell culture media. Three identical sets of scratch assays were performed (comparing vehicle to E2 or E4 treatment at 10^-7M) in DMEM containing either 2% CS-FBS. 0% FBS or 2% FBS (not CS).

Assay [3] deals with mouse bone marrow derived macrophages (BMDM). The assay is described as follows: M1-polarised murine bone marrow derived macrophages, qPCR of M1 markers. The following applies: M1 polarised BMDM, E4 10^−7M, preliminary. Format: cell-based. The protocol:
Bones were flushed with DMEM supplemented with 1% penicillin/streptomycin and 1% amphotericin B. Bone marrow cells were seeded into 12- or 6-well plates at 1×10^6 cells/ml in DMEM supplemented with 10% FBS and 10% L929-conditioned medium to induce differentiation. After 7-10 days, differentiated macrophages were treated with 10^−7M E2 or E4 in serum free growth medium for 16 hours and polarised to M1-type cells using 100 ng/ml IFN-γ and 1 μg/ml LPS. Following 6- or 24-hours polarisation cells were collected for RNA isolation or flow cytometry.
Following treatments, human and murine macrophages were collected in Trizol and RNA isolated using the Trizol plus RNA isolation kit (Invitrogen. Thermo Fisher) according to the manufacturer's instructions. RNA was reverse transcribed to cDNA using GoScript reverse transcriptase (Promega). Quantitative real-time PCR was carried out using 2×Takyon SYBR Green mastermix and a CFX Connect thermocycler. Primers for ERα and ERβ were used to explore changes in ER expression after treatment of MEK and MDF with E2 and E4. To investigate the effect of E2 and E4 on MEK differentiation and the expression of ECM proteins by MDF, primers for. Snail, keratin-1 and fibronectin, collagen I. MMP-2 and MMP-9 were used. Primers for INOS. IL-1B and Tnf-α or Ccl17 were used to assess M1/M2 polarisation status. Primers for GAPDH were used to normalise data. Relative gene expression was set to vehicle controls or M0 expression unless otherwise stated.
For follow up experiments murine bone marrow derived monocytes were isolated, differentiated (L929 media) and polarised to a pro-inflammatory M1 phenotype (IFN-γ and LPS: for 6 or 24 hours), and co-treated with either E2 or E4 at the optimal concentration identified in THP1 cells (10^−7: FIG. 24). […] Experiments were then undertaken with murine bone marrow derived monocytes differentiated to macrophages with 30 ng/ml MCSF, as opposed to L929 conditioned media.

Each structure is given as a SMILES string.

On to `N#CC(Cc1ccc(O)cc1)c1ccc(O)cc1` (stereo not shown) [DPN], for which the “expression of ERα and ERβ” value in assay [1] is “increased ERβ expression”.

On to `Cc1c(-c2ccc(O)cc2)nn(-c2ccc(O)cc2)c1-c1ccc(OCCN2CCCCC2)cc1` [MPP, reference compound], for which the “effect of ER antagonist co-treatment on E4-induced scratch closure” value in assay [2] is “appears to block E4-induced scratch closure”. The “effect of ER antagonist co-treatment on E4-mediated reduction in IL1-β” value in assay [3] was “appears to block E4-induced scratch closure and E4-mediated reduction in IL1-β”.

With `CCCc1c(-c2ccc(O)cc2)nn(-c2ccc(O)cc2)c1-c1ccc(O)cc1` [PPT], the “expression of ERα and ERβ” value in assay [1] is “increased ERα”.
